pIC50: −log10 of the molar value. The source made the active and inactive calls. The calls are words filed in the database; no cut-off is given here. Numbered stars: 1 amine (or outer) side, 2 acyl side, 3 side chain; on linkers, the order of the positions; unused ones are H or OH. Square brackets hold non-standard residues; d marks the D form. Side chains are listed from the residue outwards. Peptide text beside a SMILES is read from it. * marks the point of attachment. X3 = O=C([C@@H]1C[C@@H](n2cc(C(=O)[*:3])nn2)CN1[*:1])[*:2]; X1 = O=C([C@@H]1C[C@H](n2cc(C(=O)[*:3])nn2)CN1[*:1])[*:2]; X5 = CNC(=O)c1cn([C@@H]2C[C@@H](C(=O)[*:2])N([*:1])C2)nn1; X6 = CNC(=O)c1cn([C@H]2C[C@@H](C(=O)[*:2])N([*:1])C2)nn1; X4 = [N-]=[N+]=N[C@@H]1C[C@@H](C(=O)[*:2])N([*:1])C1; Pro(cis-4-N3) = [N-]=[N+]=N[C@@H]1CN[C@H](C(=O)O)C1; pGlu = O=C1CC[C@@H](C(=O)O)N1; X2 = NC(=O)CCCC(=O)*
Tests used:
[1] = Binding affinity to HLA-DQ2 expressed in EBV-transformed B cells; assay type: cell-based; conditions: for pIC50: read-out: IC50
T-cell = assay: Blockade of HLA-DQ2 specific human CD4+ T cell proliferation in presence of alpha-9-gluten peptide after 48 hrs; assay type: functional, cell-based

| Compound | IC50 [1] [µM] | pIC50 [1] | Activity (T-cell) |
| --- | --- | --- | --- |
| CC(C)C[C@H](NC(=O)[C@H](CCC(N)=O)NC(=O)[C@@H](N)CC(C)C)C(=O)N[C@@H](CCC(N)=O)C(=O)N1CCC[C@H]1C(=O)N[C@@H](Cc1ccccc1)C(=O)N1C[C@@H](N=[N+]=[N-])C[C@H]1C(=O)N[C@@H](CCC(N)=O)C(=O)N1CCC[C@H]1C(=O)N[C@@H](CCC(=O)O)C(=O)N[C@@H](CC(C)C)C(=O)N1CCC[C@H]1C(=O)N[C@@H](Cc1ccc(O)cc1)C(=O)N1CCC[C@H]1C(=O)N[C@@H](CCC(N)=O)C(=O)O | 8.6 |  |  |
| CC(C)C[C@H](NC(=O)CN)C(=O)N[C@@H](CCC(N)=O)C(=O)N1CCC[C@H]1C(=O)N[C@@H](Cc1ccccc1)C(=O)N1C[C@@H](N=[N+]=[N-])C[C@H]1C(=O)N[C@@H](CCC(N)=O)C(=O)N1CCC[C@H]1C(=O)N[C@@H](CCC(=O)O)C(=O)N[C@@H](CC(C)C)C(=O)N1CCC[C@H]1C(=O)N[C@@H](Cc1ccc(O)cc1)C(=O)N1CCC[C@H]1C(=O)N[C@@H](CCC(N)=O)C(=O)O (H-GLQPF[Pro(cis-4-N3)]QPELPYPQ-OH) | 9.4 |  |  |
| CC(C)C[C@H](NC(=O)[C@H](CCC(=O)O)NC(=O)[C@@H]1CCCN1C(=O)[C@H](CCC(N)=O)NC(=O)[C@@H]1C[C@H](N=[N+]=[N-])CN1C(=O)[C@H](Cc1ccccc1)NC(=O)[C@@H]1CCCN1C(=O)[C@H](CCC(N)=O)NC(=O)[C@@H](N)CC(C)C)C(=O)N1CCC[C@H]1C(=O)N[C@@H](Cc1ccc(O)cc1)C(=O)N1CCC[C@H]1C(=O)N[C@@H](CCC(N)=O)C(=O)O (H-LQPF[Pro(cis-4-N3)]QPELPYPQ-OH) | 6.9 |  |  |
| CC(C)C[C@H](NC(=O)[C@@H](N)CCC(N)=O)C(=O)N[C@@H](CCC(N)=O)C(=O)N1CCC[C@H]1C(=O)N[C@@H](Cc1ccccc1)C(=O)N1CCC[C@H]1C(=O)N[C@@H](CCC(N)=O)C(=O)N1CCC[C@H]1C(=O)N[C@@H](CCC(=O)O)C(=O)N[C@@H](CC(C)C)C(=O)N1CCC[C@H]1C(=O)N[C@@H](Cc1ccc(O)cc1)C(=O)O (H-QLQPFPQPELPY-OH) | 17.2 |  |  |
| CC(C)C[C@H](NC(=O)[C@@H](N)CCC(N)=O)C(=O)N[C@@H](CCC(N)=O)C(=O)N1CCC[C@H]1C(=O)N[C@@H](Cc1ccccc1)C(=O)N1C[C@@H](N=[N+]=[N-])C[C@H]1C(=O)N[C@@H](CCC(N)=O)C(=O)N1CCC[C@H]1C(=O)N[C@@H](CCC(=O)O)C(=O)N[C@@H](CC(C)C)C(=O)N1CCC[C@H]1C(=O)N[C@@H](Cc1ccc(O)cc1)C(=O)N1CCC[C@H]1C(=O)N[C@@H](CCC(N)=O)C(=O)O (H-QLQPF[Pro(cis-4-N3)]QPELPYPQ-OH) | 10.7 |  |  |
| CC(C)C[C@H](NC(=O)CCCC(N)=O)C(=O)N[C@@H](CCC(N)=O)C(=O)N1CCC[C@H]1C(=O)N[C@@H](Cc1ccccc1)C(=O)N1C[C@@H](N=[N+]=[N-])C[C@H]1C(=O)N[C@@H](CCC(N)=O)C(=O)N1CCC[C@H]1C(=O)N[C@@H](CCC(=O)O)C(=O)N[C@@H](CC(C)C)C(=O)N1CCC[C@H]1C(=O)N[C@@H](Cc1ccc(O)cc1)C(=O)N1CCC[C@H]1C(=O)N[C@@H](CCC(N)=O)C(=O)O (X2-LQPF[Pro(cis-4-N3)]QPELPYPQ-OH) | 7.2 |  |  |
| CC(C)C[C@H](NC(=O)[C@@H]1CCC(=O)N1)C(=O)N[C@@H](CCC(N)=O)C(=O)N1CCC[C@H]1C(=O)N[C@@H](Cc1ccccc1)C(=O)N1CCC[C@H]1C(=O)N[C@@H](CCC(N)=O)C(=O)N1C[C@@H](N=[N+]=[N-])C[C@H]1C(=O)N[C@@H](CCC(=O)O)C(=O)N[C@@H](CC(C)C)C(=O)N1CCC[C@H]1C(=O)N[C@@H](Cc1ccc(O)cc1)C(=O)N1CCC[C@H]1C(=O)N[C@@H](CCC(N)=O)C(=O)O ([pGlu]LQPFPQ[Pro(cis-4-N3)]ELPYPQ-OH) |  | 5.62 |  |
| COC(=O)[C@H](Cc1ccccc1)NC(=O)c1cn([C@H]2C[C@@H](C(=O)N[C@@H](CCC(=O)O)C(=O)N[C@@H](CC(C)C)C(=O)N3CCC[C@H]3C(=O)N[C@@H](Cc3ccc(O)cc3)C(=O)N3CCC[C@H]3C(=O)N[C@@H](CCC(N)=O)C(=O)O)N(C(=O)[C@H](CCC(N)=O)NC(=O)[C@@H]3CCCN3C(=O)[C@H](Cc3ccccc3)NC(=O)[C@@H]3CCCN3C(=O)[C@H](CCC(N)=O)NC(=O)[C@H](CC(C)C)NC(=O)[C@@H]3CCC(=O)N3)C2)nn1 ([pGlu]LQPFPQ[X1]([Phe-OMe])ELPYPQ-OH) |  | 5.64 |  |
| COC(=O)[C@H](Cc1ccccc1)NC(=O)c1cn([C@@H]2C[C@@H](C(=O)N[C@@H](CCC(=O)O)C(=O)N[C@@H](CC(C)C)C(=O)N3CCC[C@H]3C(=O)N[C@@H](Cc3ccc(O)cc3)C(=O)N3CCC[C@H]3C(=O)N[C@@H](CCC(N)=O)C(=O)O)N(C(=O)[C@H](CCC(N)=O)NC(=O)[C@@H]3CCCN3C(=O)[C@H](Cc3ccccc3)NC(=O)[C@@H]3CCCN3C(=O)[C@H](CCC(N)=O)NC(=O)[C@H](CC(C)C)NC(=O)[C@@H]3CCC(=O)N3)C2)nn1 ([pGlu]LQPFPQ[X3]([Phe-OMe])ELPYPQ-OH) |  | 5.49 |  |
| CC(C)C[C@H](NC(=O)[C@@H]1CCC(=O)N1)C(=O)N[C@@H](CCC(N)=O)C(=O)N1CCC[C@H]1C(=O)N[C@@H](Cc1ccccc1)C(=O)N1CCC[C@H]1C(=O)N[C@@H](CCC(N)=O)C(=O)N1C[C@H](N=[N+]=[N-])C[C@H]1C(=O)N[C@@H](CCC(=O)O)C(=O)N[C@@H](CC(C)C)C(=O)N1CCC[C@H]1C(=O)N[C@@H](Cc1ccc(O)cc1)C(=O)N1CCC[C@H]1C(=O)N[C@@H](CCC(N)=O)C(=O)O ([pGlu]LQPFPQ[X4]ELPYPQ-OH) |  | 5.64 |  |
| CNC(=O)c1cn([C@@H]2C[C@@H](C(=O)N[C@@H](CCC(=O)O)C(=O)N[C@@H](CC(C)C)C(=O)N3CCC[C@H]3C(=O)N[C@@H](Cc3ccc(O)cc3)C(=O)N3CCC[C@H]3C(=O)N[C@@H](CCC(N)=O)C(=O)O)N(C(=O)[C@H](CCC(N)=O)NC(=O)[C@@H]3CCCN3C(=O)[C@H](Cc3ccccc3)NC(=O)[C@@H]3CCCN3C(=O)[C@H](CCC(N)=O)NC(=O)[C@H](CC(C)C)NC(=O)[C@@H]3CCC(=O)N3)C2)nn1 ([pGlu]LQPFPQ[X5]ELPYPQ-OH) |  | 5.24 |  |
| CNC(=O)c1cn([C@H]2C[C@@H](C(=O)N[C@@H](CCC(=O)O)C(=O)N[C@@H](CC(C)C)C(=O)N3CCC[C@H]3C(=O)N[C@@H](Cc3ccc(O)cc3)C(=O)N3CCC[C@H]3C(=O)N[C@@H](CCC(N)=O)C(=O)O)N(C(=O)[C@H](CCC(N)=O)NC(=O)[C@@H]3CCCN3C(=O)[C@H](Cc3ccccc3)NC(=O)[C@@H]3CCCN3C(=O)[C@H](CCC(N)=O)NC(=O)[C@H](CC(C)C)NC(=O)[C@@H]3CCC(=O)N3)C2)nn1 ([pGlu]LQPFPQ[X6]ELPYPQ-OH) |  | 5.05 |  |
| CC(C)C[C@H](NC(=O)[C@@H]1CCC(=O)N1)C(=O)N[C@@H](CCC(N)=O)C(=O)N1CCC[C@H]1C(=O)N[C@@H](Cc1ccccc1)C(=O)N1C[C@@H](N=[N+]=[N-])C[C@H]1C(=O)N[C@@H](CCC(N)=O)C(=O)N1CCC[C@H]1C(=O)N[C@@H](CCC(=O)O)C(=O)N[C@@H](CC(C)C)C(=O)N1CCC[C@H]1C(=O)N[C@@H](Cc1ccc(O)cc1)C(=O)N1CCC[C@H]1C(=O)N[C@@H](CCC(N)=O)C(=O)O ([pGlu]LQPF[Pro(cis-4-N3)]QPELPYPQ-OH) |  | 5.49 |  |
| COC(=O)[C@H](Cc1ccccc1)NC(=O)c1cn([C@H]2C[C@@H](C(=O)N[C@@H](CCC(N)=O)C(=O)N3CCC[C@H]3C(=O)N[C@@H](CCC(=O)O)C(=O)N[C@@H](CC(C)C)C(=O)N3CCC[C@H]3C(=O)N[C@@H](Cc3ccc(O)cc3)C(=O)N3CCC[C@H]3C(=O)N[C@@H](CCC(N)=O)C(=O)O)N(C(=O)[C@H](Cc3ccccc3)NC(=O)[C@@H]3CCCN3C(=O)[C@H](CCC(N)=O)NC(=O)[C@H](CC(C)C)NC(=O)[C@@H]3CCC(=O)N3)C2)nn1 ([pGlu]LQPF[X1]([Phe-OMe])QPELPYPQ-OH) |  | 5.89 | Active |
| COC(=O)[C@H](Cc1ccccc1)NC(=O)c1cn([C@@H]2C[C@@H](C(=O)N[C@@H](CCC(N)=O)C(=O)N3CCC[C@H]3C(=O)N[C@@H](CCC(=O)O)C(=O)N[C@@H](CC(C)C)C(=O)N3CCC[C@H]3C(=O)N[C@@H](Cc3ccc(O)cc3)C(=O)N3CCC[C@H]3C(=O)N[C@@H](CCC(N)=O)C(=O)O)N(C(=O)[C@H](Cc3ccccc3)NC(=O)[C@@H]3CCCN3C(=O)[C@H](CCC(N)=O)NC(=O)[C@H](CC(C)C)NC(=O)[C@@H]3CCC(=O)N3)C2)nn1 ([pGlu]LQPF[X3]([Phe-OMe])QPELPYPQ-OH) |  | 4.53 |  |
| CC(C)C[C@H](NC(=O)[C@@H]1CCC(=O)N1)C(=O)N[C@@H](CCC(N)=O)C(=O)N1CCC[C@H]1C(=O)N[C@@H](Cc1ccccc1)C(=O)N1C[C@H](N=[N+]=[N-])C[C@H]1C(=O)N[C@@H](CCC(N)=O)C(=O)N1CCC[C@H]1C(=O)N[C@@H](CCC(=O)O)C(=O)N[C@@H](CC(C)C)C(=O)N1CCC[C@H]1C(=O)N[C@@H](Cc1ccc(O)cc1)C(=O)N1CCC[C@H]1C(=O)N[C@@H](CCC(N)=O)C(=O)O ([pGlu]LQPF[X4]QPELPYPQ-OH) |  | 5.26 |  |
| CNC(=O)c1cn([C@@H]2C[C@@H](C(=O)N[C@@H](CCC(N)=O)C(=O)N3CCC[C@H]3C(=O)N[C@@H](CCC(=O)O)C(=O)N[C@@H](CC(C)C)C(=O)N3CCC[C@H]3C(=O)N[C@@H](Cc3ccc(O)cc3)C(=O)N3CCC[C@H]3C(=O)N[C@@H](CCC(N)=O)C(=O)O)N(C(=O)[C@H](Cc3ccccc3)NC(=O)[C@@H]3CCCN3C(=O)[C@H](CCC(N)=O)NC(=O)[C@H](CC(C)C)NC(=O)[C@@H]3CCC(=O)N3)C2)nn1 ([pGlu]LQPF[X5]QPELPYPQ-OH) |  | 5.24 |  |
| CNC(=O)c1cn([C@H]2C[C@@H](C(=O)N[C@@H](CCC(N)=O)C(=O)N3CCC[C@H]3C(=O)N[C@@H](CCC(=O)O)C(=O)N[C@@H](CC(C)C)C(=O)N3CCC[C@H]3C(=O)N[C@@H](Cc3ccc(O)cc3)C(=O)N3CCC[C@H]3C(=O)N[C@@H](CCC(N)=O)C(=O)O)N(C(=O)[C@H](Cc3ccccc3)NC(=O)[C@@H]3CCCN3C(=O)[C@H](CCC(N)=O)NC(=O)[C@H](CC(C)C)NC(=O)[C@@H]3CCC(=O)N3)C2)nn1 ([pGlu]LQPF[X6]QPELPYPQ-OH) |  | 5.34 |  |

Source: ChEMBL document CHEMBL1143150, “Design of azidoproline containing gluten peptides to suppress CD4+ T-cell responses associated with celiac disease” (Bioorg Med Chem, 2008)
